The values that follow come from patent US6855723B2, “Methods of modulating serine/threonine protein kinase function with azabenzimidazole-based compounds” (Zentaris GmbH, priority 1997, dated 2005).

For one series, the target named is T1, RAF-1 (Homo sapiens, UniProt P04049).
T1 construct: made in house; host or cells: Sf9 (Spodoptera frugiperda) insect cells co-infected with RAS and RAF recombinant baculoviruses
Nature of the series: RAF-1 ELISA assay (RAF-1 phosphorylation of MEK and MAPK). The format is biochemical. The note with it: RAF-1 phosphorylation assay, lysates from RAS/RAF infected Sf9 cells, T-MEK and His-MAPK substrates. From the text: Assay Measuring Phosphorylating Function of RAF
The following assay reports the amount of RAF-catalyzed phosphorylation of its target protein MEK as well as MEK's target MAPK. The RAF gene sequence is described in Bonner et al., 1985, Molec. Cell. Biol. 5: 1400-1407, and is readily accessible in multiple gene sequence data banks. Construction of the nucleic acid vector and cell lines utilized for this portion of the invention are fully described in Morrison et al., 1988, Proc. Natl. Acad. Sci. USA 85: 8855-8859.
All of the following steps were conducted at room temperature unless specifically indicated.
1. ELISA plate coating: ELISA wells are coated with 100 μL of Sheep anti mouse affinity purified antiserum (1 μg/100 μL coating buffer) over night at 4° C. […]
11. […] Insert the holder into radioactive detection apparatus and quantify the radioactive phosphorous on the filter mats.
Alternatively, 40 μL aliquots from individual wells of the assay plate can be transferred to the corresponding Positions on the phosphocellulose filter mat. […] Insert the holder into a detection device and quantify the radioactive phosphorous on the filter mats.
IC50 values were measured according to the protocol for the following azabenzimidazole-based compounds in the RAF-1 ELISA assay: [drawing 5] […] The IC50 values measured in the RAF-1 phosphorylation assay are depicted in Table 1: […]

The target of the next series is T2, EGF Receptor (Homo sapiens, UniProt P00533).
T2 construct: expressed in transfected cells; host or cells: NIH3T3 cells (EGFR-NIH3T3)
Nature of the series: EGF receptor phosphorylation assay in whole cells (EGFR-NIH3T3 assay). The format is cell-based. The note with it: EGF receptor kinase activity in whole cells. As to the method: Assay Measuring Phosphorylating Function of EGF Receptor
EGF Receptor kinase activity (EGFR-NIH3T3 assay) in whole cells was measured as described in detail in PCT Publication WO9640116, filed Jun. 5, 1996, by Tang et al., and entitled “Indolinone Compounds for the Treatment of Disease,” incorporated herein by reference in its entirety, including any drawings.
The IC50 values measured in the EGF receptor phosphorylation assay are depicted in Table 2: […]

In series [1] the test system is 3T3/H-Ras (NIH 3T3 clone 7 cells expressing genomic fragment of oncogenic H-Ras). Nature of the series: Growth of NIH 3T3 cells over expressing H-Ras (SRB). Type of series: cell-based. The note with it: Mus musculus, NIH3T3, 72 h; cell growth, 2% calf serum, 3 days incubation. On the procedure:
Assay Measuring the Effect of Azabenzimidazole-Based Compounds on the Growth of Cells Expression RAS
The following assay measures growth rates for NIH-3T3 cells expressing RAS. The purpose of the assay is to determine the effects of compounds on the growth of NIH 3T3 cells over expressing H-Ras.
• 96-well flat bottom sterile plates • 96-well round bottom sterile plates • sterile 25 mL or 100 mL reservoir • pipets, multi-channel pipetman • sterile pipet tips • sterile 15 mL and 50 mL tubes Reagents • 0.4% SRB in 1% acetic acid • 10 mM Tris base • 10% TCA • 1% acetic acid • sterile DMSO (Sigma) • compound in DMSO (100 mM or less stock solution) • Trypsin-EDTA (GIBCO BRL) Cell Line • 3T3/H-Ras (NIH 3T3 clone 7 cells expressing genomic fragment of oncogenic H-Ras).
The cells can be constructed using the following protocol: • 1. Subclone a gene fragment encoding Ras into a commercially available vector that will stably transfect NIH-3T3 cells. The fragment is from the genomic transforming allele of cHa-ras. • 2. Transfect NIH-3T3 cells with the subcloned vector by a calcium phosphate method. Select cells expressing the Ras construct in 2% serum in DMEM. Visible foci are observed after 2 weeks. Pool the transformed cells to generate a stably transformed cell line. […]
6. Read plates on Dynatech ELISA Plate REader at 570 nm with reference at 630 nm.

For series [2], the system named is A549 human lung carcinoma cells. Put plainly: Growth of A549 cells (SRB). Conditions: cell growth. The format is cell-based. On the procedure:
Assay Measuring Effect of Azabenzimidazole-Based Compounds on Growth of A549 Cells
The following assay measures growth rates for A549 cells. The purpose of the assay is to determine the effects of compounds on the growth of A549 human lung carcinoma cells. A549 cells are readily accessible from commercial sources, such as ATCC (CCL185).
• 96-well flat bottom sterile plates • 96-well round bottom sterile plates • sterile 25 mL or 100 mL reservoir • pipets, multi-channel pipetman • sterile pipet tips sterile 15 mL and 50 mL tubes Reagents • 0.4% SRB in 1% acetic acid • 10 mM Tris base • 10% TCA • 1% acetic acid • sterile DMSO (Sigma) • compound in DMSO (100 mM or less stock solution) • Trypsin-EDTA (GIBCO BRL) Cell Line and Growth Medium • A549 human lung carcinoma cells (ATCC CCL185) • 10% fetal calf serum in Ham's F12-K Protocol Day 0: Cell Plating This part of assay is carried out in a laminar flow hood.
1. Trypsinize cells. Transfer 200 μL of cell suspension to 10 mL of isotone. Count cells with a Coulter Counter.
2. Dilute cells in growth medium to 20,000 cell/mL. Transfer 100 μL of cells to each well in a 96-well flat bottom plate to give 2000 cells/well.
3. Use half of plate (4 rows) for each compound and quadruplicate wells for each compound concentration, and a set of 4 wells for medium control.
4. […]
6. Read plates on Dynatech ELISA Plate Reader at 570 nm with reference at 630 nm.

Like-named read-outs stand apart in the source and are kept apart here.

T1 sequence (P04049 whole entry): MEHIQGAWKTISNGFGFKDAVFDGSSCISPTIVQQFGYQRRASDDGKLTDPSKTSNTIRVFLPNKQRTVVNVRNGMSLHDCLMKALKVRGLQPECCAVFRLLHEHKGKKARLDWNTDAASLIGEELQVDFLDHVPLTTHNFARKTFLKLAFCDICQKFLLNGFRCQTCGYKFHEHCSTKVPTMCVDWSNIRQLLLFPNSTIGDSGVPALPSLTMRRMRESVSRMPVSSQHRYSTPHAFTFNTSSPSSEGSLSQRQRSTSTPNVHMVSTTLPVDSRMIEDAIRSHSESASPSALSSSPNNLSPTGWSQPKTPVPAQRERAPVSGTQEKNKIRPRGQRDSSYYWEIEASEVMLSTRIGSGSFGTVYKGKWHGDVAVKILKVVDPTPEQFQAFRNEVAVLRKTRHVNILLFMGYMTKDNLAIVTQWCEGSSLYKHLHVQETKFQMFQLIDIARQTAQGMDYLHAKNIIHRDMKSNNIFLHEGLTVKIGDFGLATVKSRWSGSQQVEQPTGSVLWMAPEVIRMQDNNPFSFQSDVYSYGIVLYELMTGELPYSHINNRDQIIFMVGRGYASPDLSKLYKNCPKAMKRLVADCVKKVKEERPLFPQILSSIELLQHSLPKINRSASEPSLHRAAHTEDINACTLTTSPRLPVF
T2 sequence (P00533 25-1210): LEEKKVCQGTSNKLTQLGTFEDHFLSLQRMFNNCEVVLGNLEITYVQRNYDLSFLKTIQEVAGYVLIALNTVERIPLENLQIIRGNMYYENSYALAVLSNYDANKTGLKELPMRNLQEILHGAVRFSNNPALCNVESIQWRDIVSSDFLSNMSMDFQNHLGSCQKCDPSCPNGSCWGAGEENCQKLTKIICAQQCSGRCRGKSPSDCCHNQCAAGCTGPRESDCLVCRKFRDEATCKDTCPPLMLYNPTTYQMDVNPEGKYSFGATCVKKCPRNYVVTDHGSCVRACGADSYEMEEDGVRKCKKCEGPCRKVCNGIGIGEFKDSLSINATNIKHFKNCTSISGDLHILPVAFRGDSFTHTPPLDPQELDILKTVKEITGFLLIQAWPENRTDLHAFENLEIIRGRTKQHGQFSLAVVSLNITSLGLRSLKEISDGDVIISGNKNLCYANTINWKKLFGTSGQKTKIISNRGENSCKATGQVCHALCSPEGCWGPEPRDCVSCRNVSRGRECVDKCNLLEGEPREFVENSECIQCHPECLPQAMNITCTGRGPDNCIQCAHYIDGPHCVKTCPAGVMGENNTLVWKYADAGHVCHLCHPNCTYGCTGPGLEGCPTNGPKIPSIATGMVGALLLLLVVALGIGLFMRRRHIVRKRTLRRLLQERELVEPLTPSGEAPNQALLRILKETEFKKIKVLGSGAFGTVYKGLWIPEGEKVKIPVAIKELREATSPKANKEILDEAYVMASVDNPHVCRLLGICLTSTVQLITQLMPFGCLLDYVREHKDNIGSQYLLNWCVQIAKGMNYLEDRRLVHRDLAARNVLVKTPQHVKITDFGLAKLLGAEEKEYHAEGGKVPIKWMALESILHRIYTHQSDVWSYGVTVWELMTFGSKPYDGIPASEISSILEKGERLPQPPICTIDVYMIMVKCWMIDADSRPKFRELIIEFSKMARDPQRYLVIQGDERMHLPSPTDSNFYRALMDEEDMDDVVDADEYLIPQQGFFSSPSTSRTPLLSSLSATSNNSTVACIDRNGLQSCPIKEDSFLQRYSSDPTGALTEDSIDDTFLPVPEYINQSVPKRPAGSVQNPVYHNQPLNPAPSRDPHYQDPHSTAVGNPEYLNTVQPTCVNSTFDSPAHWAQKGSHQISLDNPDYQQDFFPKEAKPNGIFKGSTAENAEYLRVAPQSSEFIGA

For orientation: IC50 means the concentration needed to halve the response being measured. For orientation: melting point means the temperature of the solid-liquid transition. In the case of `COC(=O)Nc1nc2ccc(Oc3ccccc3)nc2[nH]1` [Compound A-3], the melting point was > 280 °C (dec.). In addition, at RAF-1, inhibition was half-maximal at 6.1 µM (IC50). For the same compound, the IC50 at EGF Receptor is over 100 µM. Moreover, the IC50 in series [1] turned out to be 40 µM. The IC50 in series [2] (2% FBS, read-out: IC50 (μM) A549 (2% FBS)) is 65 µM. Also, the IC50 in series [2] (10% fetal calf serum in Ham's F12-K, read-out: IC50 (μM) A549) stood at 22 µM.
